We go through 1 compound from BindingDB's records for doi:10.1021/jm00159a020 (1986).

Each structure is given as a SMILES string.

This assay is described as follows: Potency against rat brain adenosine A1 receptor at 10 uM.

For the compound `CCCCN(C)C(=O)[C@H]1OC(n2cnc3c(NC(CC)CC)ncnc32)[C@H](O)[C@@H]1O` (stereo partly specified), the % displacement at 10 µM was found to be 10%.
